Measured values: patent US20230093594A1, “PANTETHENOYLCYSTEINE DERIVATIVES AND USES THEREOF” (Comet Therapeutics, Inc., priority 2019, published 2023)

Key:
[1] = system: Peripheral blood mononuclear cells co-cultured with venular endothelial cells (HUVEC) (LPS system); assay: BioMAP LPS system (LPS, 24h); assay type: cell-based, human; conditions: procedure of Example 43 (LPS)
Description: (§1) The BioMAP platform is an in vitro phenotypic profiling technology that screened the compounds of the present disclosure (hereafter indicated as test agents) in human primary cell-based systems modelling complex tissue and disease states. The BioMAP assays were performed using the Eurofin's BioMAP Technology Platform as referenced in below articles to model different diseases on primary cell-based model systems. These systems consisted of either single primary cell types or co-culture cells. Adherent cell types were cultured or co-cultured in 96 or 384-well plates until confluence followed by the addition of compounds prepared in DMSO at a final concentration of <0.1%. In each cell-based system, primary cells from heathy donors (2-6 donors) were pooled and treated with compounds at 1 and 10 μM dose 1h prior to stimulation and remain in culture as indicated in Example 41, Example 42, Example 43, Example 44, Example 45, Example 46, Example 47, Example 48, Example 49, Example 50, Example 51, Example 52.
Following the general procedure as described in Example 40, Peripheral blood mononuclear cells co-cultured with venular endothelial cells (HUVEC) (LPS system) were stimulated with LPS for 24h in the presence or absence of compounds, to model cardiovascular disease and chronic inflammation. Biomarkers read out were; MCP-1, VCAM-1, Thrombomodulin, Tissue Factor, CD40, E-selectin, CD69, IL-8, IL-1α, M-CSF, sPGE2, SRB and TNFα.

[2] = system: Venular Endothelial cells (HUVEC) (3C system); assay: BioMAP 3C system (IL-1β, TNFα, IFNγ, 24h); assay type: cell-based, human; conditions: procedure of Example 41 (3C), 10 μM
Description: as §1, with “In each cell-based system, primary cells from heathy donors (2-6 donors) were pooled and treated with compounds at 1 and 10 μM dose 1h prior to stimulation and remain in culture as indicated in Example 41, Example 42, Example 43, Example 44, Example 45, Example 46, Example 47, Example 48, Example 49, Example 50, Example 51, Example 52.” left out
Following the general procedure as described in Example 40, Venular Endothelial cells (HUVEC) (3C system) were treated with IL-1β, TNFα, IFNγ for 24h to model Th1 driven cardiovascular and chronic inflammation diseases in the presence or absence of the compounds. Biomarker read out were; Tissue Factor, ICAM-1, E-selectin, uPAR (CD87), IL-8, MIG, HLA-DR, proliferation and SRB (Sulfo-rhodamine i.e., staining for protein content).

[3] = system: MMA Patient fibroblasts (GM00371); assay: Mitochondrial morphology imaging in MMA patient fibroblasts (GM00371); assay type: cell-based; conditions: image compared with fragmented mitochondria in vehicle control
[4] = system: Peripheral blood mononuclear cells co-cultured with venular endothelial cells (Sag system); assay: BioMAP SAg system (T-cell ligands); assay type: cell-based, human; conditions: procedure of Example 44 (SAg), 10 μM
Description: as §1, with “In each cell-based system, primary cells from heathy donors (2-6 donors) were pooled and treated with compounds at 1 and 10 μM dose 1h prior to stimulation and remain in culture as indicated in Example 41, Example 42, Example 43, Example 44, Example 45, Example 46, Example 47, Example 48, Example 49, Example 50, Example 51, Example 52.” left out
Following the general procedure as described in Example 40, Peripheral blood mononuclear cells were co-cultured with venular endothelial cells and treated with […] (T-cell ligands) (Sag system) in the presence or absence of compounds to model autoimmune and chronic inflammation Biomarkers read out were; MCP-1, CD38, CD40, E-selectin, CD69, IL-8, MIG, PBMC cytotoxicity, Proliferation and SRB.

[5] = system: Bronchial epithelial cells (BE3C system); assay: BioMAP BE3C system (IL-1β, TNFα, IFNγ, 24h); assay type: cell-based, human; conditions: procedure of Example 47 (BE3C), 10 μM
Description: as §1, with “In each cell-based system, primary cells from heathy donors (2-6 donors) were pooled and treated with compounds at 1 and 10 μM dose 1h prior to stimulation and remain in culture as indicated in Example 41, Example 42, Example 43, Example 44, Example 45, Example 46, Example 47, Example 48, Example 49, Example 50, Example 51, Example 52.” left out
Following the general procedure as described in Example 40, Bronchial epithelial cells (BE3C system) were treated with IL-1β, TNFα and IFNγ for 24h in the presence or absence of the compounds to model lung inflammation and chronic obstructive pulmonary disease (COPD). Biomarkers read out were; ICAM-1, uPAR, IP-10, I-TA C, IL-A, MIG, EGFR, HLA-DR, IL-1α, Keratin 8/18, MMP-1, MMP-9, PAI-1, SRB, tPA, uPA.

[6] = system: MMA Patient fibroblasts (TSI 3739); assay: Mitochondrial morphology imaging in MMA patient fibroblasts (TSI 3739); assay type: cell-based; conditions: image compared with fragmented mitochondria in vehicle control
[7] = system: Dermal fibroblasts (HDF3CGF system); assay: BioMAP HDF3CGF system (IL-1β, TNFα, IFNγ, EGF, bFGF, PDGF-BB, 24h); assay type: cell-based, human; conditions: procedure of Example 49 (HDF3CGF), 10 μM
Description: as §1
Following the general procedure as described in Example 40, Dermal fibroblasts (HDF3CGF system) were treated with IL-1β, TNFα and IFNγ, EGF, bFGF and PDGF-BB for 24h in the presence or absence of the compounds to model fibrosis and chronic inflammation. Biomarkers read out were; MCP-1, VCAM-1, ICAM-1, Collagen-I, Collagen-III, IP-10, I-TAC, IL-8, MIG, EGFR, M-CSF, MMP-1, PAI-1, SRB, TIMP-1, TIMP-2 and proliferation was measured for 72h.

[8] = system: Venular Endothelial cells (HUVEC) (4H system); assay: BioMAP 4H system (IL-4 and histamine, 24h); assay type: cell-based, human; conditions: procedure of Example 42, 10 μM
Description: as §1
Following the general procedure as described in Example 40, Venular Endothelial cells (HUVEC) (4H system) were treated with IL-4 and histamine for 24h to model Th2 driven allergy and autoimmunity in the presence or absence of compounds. […]

[9] = system: Keratinocytes co-cultured with dermal fibroblast (KF3CT system); assay: BioMAP KF3CT system (IL-1β, TNFα, IFNγ, TGFβ, 24h); assay type: cell-based, human; conditions: procedure of Example 50 (KF3CT), 1 μM
Description: as §1
Following the general procedure as described in Example 40, Keratinocytes were co-cultured with dermal fibroblast (KF3CT system) and treated with IL-1β, TNFα, IFNγ and TGFβ for 24h in the presence or absence of the compounds to model psoriasis, dermatitis and skin biology. Biomarkers read out were; MCP-1, ICAM-1, IP-10, IL-8, MIG, IL-1α, MMP-9, PAI, SRB, TIMP-2, uPA.

[10] = system: Bronchial epithelial cells co-cultured with dermal fibroblast (BF4T system); assay: BioMAP BF4T system (TNFα and IL-4, 24h); assay type: cell-based, human; conditions: procedure of Example 46 (BF4T), 10 μM
Description: as §1
Following the general procedure as described in Example 40, Bronchial epithelial cells were co-cultured with dermal fibroblast (BF4T system) and were treated with TNFα. and IL-4 for 24h in the presence or absence of the compounds to model asthma, allergy, fibrosis, lung inflammation. Biomarkers read out were; MCP-1, Eotaxin-3, VCAM-1, ICAM-1, CD90, IL-8, IL-la, keratin 8/18, MMP-1, MMP-3, MMP-9, PAI-1, SRB, tPA, uPA.

[11] = system: human primary cell-based systems; assay: BioMAP assay, general procedure of Example 40 (system not stated)
Description: as §1

[12] = system: Peripheral blood mononuclear cells co-cultured with B-cells (BT system); assay: BioMAP BT system (a-IgM and TCR ligands, 72h); assay type: cell-based, human; conditions: procedure of Example 45 (BT)
Description: as §1
Following the general procedure as described in Example 40, Peripheral blood mononuclear cells were co-cultured with B-cells (BT system) were treated with either a-IgM and TCR ligands for 72h in the presence or absence of the compounds to model asthma, allergy, oncology and autoimmunity. Biomarkers read out were; B-cell proliferation, PBMC cytotoxicity, secreted IgG, sIL-17A, sIL-17F, siL-2, sIL-6 and s-TNFα.

[13] = system: Venular endothelial cells co-cultured with macrophages (Mphg system); assay: BioMAP Mphg system (TLR2 ligand, 24h); assay type: cell-based, human
Description: as §1
Following the general procedure as described in Example 40, Venular endothelial cells co-cultured with macrophages (Mphg system) and treated with TLR2 ligand for 24h in the presence or absence of the compounds to mimic cardiovascular inflammation, restenosis and chronic inflammation. Biomarkers read out were; MCP-1, MIP-1α, VCAM-1, CD40, E-selectin, CD69, IL-8, IL-1α, M-CSF, sIL-10 and SRB.

[14] = procedure of Example 52 (Mphg), 10 μM

COC(=O)CCC(=O)SC[C@H](NC(=O)CCNC(=O)[C@H](O)C(C)(C)CO)C(=O)OC [Compound 8, methyl 4-[[(2R)-2-[3-[(2R)-2,4-dihydroxy-3,3-dimethylbutanamido]propanamido]-3-methoxy-3-oxopropyl]sulfanyl]-4-oxobutanoate]
% decrease in IL-1α ([1]; 1 μM): ≥20% | % decrease in IL-8 ([1]; 10 μM): ≥20% | % decrease in M-CSF ([1]; 10 μM): ≥10% | % decrease in TissueFactor ([1]; 10 μM): ≥10% | % increase in sTNFα ([1]; 10 μM): ≥10% | % decrease in IL-8 [2]: ≥10% | mitochondrial morphology (elongation and networking of mitochondria) [3]: elongation and networking of mitochondria promoted | % increase in CD69 [4]: ≥10% | % decrease in uPA [5]: ≥10% | % increase in PAI-I [5]: ≥10% | mitochondrial morphology (elongation and networking of mitochondria) [6]: elongation and networking of mitochondria promoted | % decrease in TIMP-1 [7]: ≥10% | % decrease in TIMP-2 [7]: ≥10% | % increase in Collagen III [7]: ≥20% | % decrease in E-Selectin [8]: ≥20% | % decrease in MMP-9 [9]: ≥10% | % decrease in IL-1α [10]: ≥10% | % decrease in MMP-9 [10]: ≥10% | % increase in VCAM-1 [10]: ≥10% | % decrease in Serum Amyloid A ([11]; procedure of Example 40, 1 μM): ≥10% | % decrease in VCAM-1 ([11]; procedure of Example 40, 1 μM): ≥10% | % increase in Collagen I ([11]; procedure of Example 40, 1 μM): ≥10% | % decrease in Proliferation ([11]; procedure of Example 40, 10 μM): ≥10% | % decrease in Thrombomodulin ([11]; procedure of Example 40, 10 μM): ≥20% | % increase in HLA-DR ([11]; procedure of Example 40, 10 μM): ≥10% | % increase in IL-6 ([11]; procedure of Example 40, 10 μM): ≥10% | % decrease in sTNFα ([12]; 1 μM): ≥10% | % decrease in sIL-17 ([12]; 10 μM): ≥20% | % increase in sIL-2 ([12]; 10 μM): ≥20% | % decrease in CD69 ([13]; procedure of Example 52 (Mphg), 1 μM): ≥20% | % decrease in E-Selectin [13, 14]: ≥10% | % decrease in IL-8 [13, 14]: ≥20% | % decrease in α-SMA ([13]; procedure of Example 52, 1 μM): ≥10% | % increase in MMP-1 ([13]; procedure of Example 52, 1 μM): ≥10%
